These results are taken from US9988430B2, “Stable GLP-1 based GLP-1/glucagon receptor co-agonists” (Novo Nordisk A/S, priority 2014, dated 2018).

In this assay the target is T1, human GLP-1 receptor (Homo sapiens, UniProt P43220).
T1 construct: expressed in transfected cells; host or cells: membranes of BHK cells, parent line BHKTS13, clone FCW467-12A
As to the kind of experiment: Assay (I)(a): GLP-1 receptor potency, CRE luciferase reporter gene assay in BHK cells. The assay is classed as cell-based. As to conditions: BHK cells expressing human GLP-1 receptor, read-out: EC50 GLP-1R. How it is done: Assay (I): GLP-1 and Glucagon Receptor Potency The purpose of this example was to test the activity or potency, of the GLP-1 derivatives of the invention, in vitro. The in vitro potency is the measure of human GLP-1 receptor (GLP-1R) or glucagon receptor (glucagonR) activation, respectively, in a whole cell assay. In vitro potency was determined by measuring the cellular response of human GLP-1 or glucagon receptor activation, respectively, in a reporter gene assay. The assay was performed in a BHK cell line that stably expresses either the human GLP-1 receptor or the human glucagon receptor and comprises the DNA for the cAMP response element (CRE) coupled to a promoter and the gene for firefly luciferase (CRE luciferase). […] When assay incubation was completed, the luciferase substrate (luciferin) was added and the enzyme converted luciferin to oxyluciferin and produces bioluminescence. The luminescence was measured as the readout for the assay. (a) GLP-1 Receptor Activation The cells used in this assay (clone FCW467-12A/KZ10-1) were BHK cells with BHKTS13 as a parent cell line. The cells were derived from a clone (FCW467-12A) that expresses the human GLP-1 receptor and were established by further transfection with CRE luciferase to obtain the current clone. The cells were cultured at 5% CO2 in DMEM medium with 10% FBS, 1×GlutaMAX, 1 mg/ml G418, 240 nM MTX (methotrexate) and 1% pen/strep (penicillin/streptomycin). They were aliquoted and stored in liquid nitrogen. Before each assay, an aliquot was taken up and washed three times in PBS before being suspended at the desired concentration in assay medium. For 96-well plates the suspension was made to give a final concentration of 5×10EE3 cells/well. The following chemicals were used in the assay: Pluronic F-68 (10%) (Gibco 2404), Ovalbumin (Sigma A5503), DMEM w/o phenol red (Gibco 11880-028), 1 M Hepes (Gibco 15630), Glutamax 100× (Gibco 35050) and steadylite plus (PerkinElmer 6016757). Assay Medium consisted of DMEM w/o phenol red, 10 mM Hepes, 1×GlutaMAX, 2% Ovalbumin and 0.2% Pluronic F-68. Cell stocks were thawed in a 37° C. water bath. Cells were washed three times in PBS. The cells were counted and adjusted to 5×10EE3 cells/50 μl (1×10EE5 cells/ml) in Assay Medium. A 50 μl aliquot of cells was transferred to each well in the assay plate. Stocks of the test compounds and reference compounds were diluted to a concentration of […] in Assay Medium. Compounds were diluted 10-fold to give the following concentrations: 2×10EE-6 M, 2×10EE-7 M, 2×10EE-8 M; 2×10EE-9 M, 2×10EE-10 M, 2×10EE-11 M, 2×10EE-12 M and 2×10EE-13 M. For each compound a blank assay medium control was also included. A 50 μl aliquot of compound or blank was transferred from the dilution plate to the assay plate. Compounds were tested at the following final concentrations: 1×10EE-6 M, 1×10EE-7 M, 1×10EE-8 M; 1×10EE-9 M, 1×10EE-10 M, 1×10EE-11 M and 1×10EE-12 M and 1×10EE-13 M. The assay plate was incubated for 3 h in a 5% CO2 incubator at 37° C. The assay plate was removed from the incubator and allowed to stand at room temperature for 15 min. A 100 μl aliquot of steadylite plus reagent was added to each well of the assay plate (reagent is light sensitive). Each assay plate was covered with aluminum foil to protect it from light and shaken for 30 min at room temperature. Each assay plate was read in a Perkin Elmer TopCount NXT instrument. The data from the TopCount instrument was transferred to GraphPad Prism software. The software performed a non-linear regression (log(agonist) vs response-Variable slope (four parameter)). EC50 values were calculated by the software and reported in pM.
On the technique in general: A reporter such as luciferase makes a cellular process visible.

*1 amine or outer side, *2 acyl side, *3 side chain or, on linkers, in order; H or OH if unused. Where a SMILES comes first, the peptide text is derived from it. Side-chain parts run from the residue outwards. [ ]: non-standard residue; d: D form. The star is where a group is joined. C18 diacid = O=C(O)CCCCCCCCCCCCCCCCC(=O)*; γGlu = O=C(O)[C@H](CCC(=O)[*:2])N[*:1]; Desaminohistidyl = O=C(CCc1c[nH]cn1)*; AEEA = NCCOCCOCC(=O)O; Aib = CC(C)(N)C(=O)O

T1 sequence (P43220 24-463): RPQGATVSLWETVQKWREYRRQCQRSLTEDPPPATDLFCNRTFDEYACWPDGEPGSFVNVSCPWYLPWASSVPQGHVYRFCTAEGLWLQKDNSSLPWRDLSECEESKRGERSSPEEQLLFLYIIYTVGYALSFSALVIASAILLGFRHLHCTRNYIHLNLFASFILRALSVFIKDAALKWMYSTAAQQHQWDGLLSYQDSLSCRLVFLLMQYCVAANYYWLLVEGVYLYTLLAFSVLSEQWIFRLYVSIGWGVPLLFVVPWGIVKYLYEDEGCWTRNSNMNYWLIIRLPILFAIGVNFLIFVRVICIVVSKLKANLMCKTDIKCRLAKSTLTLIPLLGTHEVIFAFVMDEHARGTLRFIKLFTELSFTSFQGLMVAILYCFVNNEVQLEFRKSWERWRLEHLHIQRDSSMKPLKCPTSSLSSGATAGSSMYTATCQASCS

For orientation: EC50 means the midpoint of the concentration-response curve. Regarding `CC[C@H](C)[C@H](NC(=O)[C@H](Cc1ccccc1)NC(=O)[C@H](CCCCNC(=O)COCCOCCNC(=O)COCCOCCNC(=O)CC[C@H](NC(=O)CC[C@H](NC(=O)CC[C@H](NC(=O)CCCCCCCCCCCCCCCCC(=O)O)C(=O)O)C(=O)O)C(=O)O)NC(=O)[C@H](CCCNC(=N)N)NC(=O)[C@H](C)NC(=O)[C@H](C)NC(=O)[C@H](CCC(N)=O)NC(=O)[C@H](CCC(=O)O)NC(=O)[C@H](CCC(=O)O)NC(=O)[C@H](CC(C)C)NC(=O)[C@H](Cc1ccc(O)cc1)NC(=O)[C@H](CCCNC(=N)N)NC(=O)[C@H](CO)NC(=O)[C@@H](NC(=O)[C@H](CC(=O)O)NC(=O)[C@H](CO)NC(=O)[C@@H](NC(=O)[C@H](Cc1ccccc1)NC(=O)[C@@H](NC(=O)CNC(=O)[C@H](Cc1c[nH]cn1)NC(=O)[C@H](C)NC(=O)CCc1c[nH]cn1)[C@@H](C)O)[C@@H](C)O)C(C)C)C(=O)N[C@@H](C)C(=O)N[C@@H](Cc1c[nH]c2ccccc12)C(=O)N[C@@H](CC(C)C)C(=O)N[C@@H](CC(C)C)C(=O)N[C@@H](CCCNC(=N)N)C(=O)O` [Example 18, N^ε27-[2-[2-[2-[[2-[2-[2-[[(4S)-4-carboxy-4-[[(4S)-4-carboxy-4-[[(4S)-4-carboxy-4-(17-carboxyheptadecanoylamino)butanoyl]amino]butanoyl]amino]butanoyl]amino]ethoxy]ethoxy]acetyl]amino]ethoxy]ethoxy]acetyl]-[Imp7,His9,Arg18,Glu22,Arg26,Lys27,Leu33,Arg34]-GLP-1-(7-34)-peptide] (Desaminohistidyl-AHGTFTSDVSRYLEEQAARK([AEEA-AEEA-γGlu-γGlu-γGlu-C18 diacid])FIAWLLR-OH), the half-maximal effective concentration (EC50) stood at 8 pM. In the case of `CC[C@H](C)[C@H](NC(=O)[C@H](Cc1ccccc1)NC(=O)[C@H](CCC(=O)O)NC(=O)[C@H](CCCNC(=N)N)NC(=O)[C@H](C)NC(=O)[C@H](C)NC(=O)[C@H](CCC(N)=O)NC(=O)[C@H](C)NC(=O)[C@H](CCC(=O)O)NC(=O)[C@H](CC(C)C)NC(=O)[C@H](Cc1ccc(O)cc1)NC(=O)[C@H](CCCCN)NC(=O)[C@H](CO)NC(=O)[C@@H](NC(=O)[C@H](CC(=O)O)NC(=O)[C@H](CO)NC(=O)[C@@H](NC(=O)[C@H](Cc1ccccc1)NC(=O)[C@@H](NC(=O)CNC(=O)[C@H](Cc1c[nH]cn1)NC(=O)C(C)(C)NC(=O)CCc1c[nH]cn1)[C@@H](C)O)[C@@H](C)O)C(C)C)C(=O)N[C@@H](C)C(=O)N[C@@H](Cc1c[nH]c2ccccc12)C(=O)N[C@@H](CC(C)C)C(=O)N[C@@H](CC(C)C)C(=O)N[C@@H](CCCCNC(=O)CC[C@H](NC(=O)CC[C@H](NC(=O)COCCOCCNC(=O)CC[C@H](NC(=O)CC[C@H](NC(=O)CCCCCCCCCCCCCCCCC(=O)O)C(=O)O)C(=O)O)C(=O)O)C(=O)O)C(=O)N[C@H](C(N)=O)[C@@H](C)O` [Example 34, N^ε34-[(4S)-4-carboxy-4-[[(4S)-4-carboxy-4-[[2-[2-[2-[[(4S)-4-carboxy-4-[[(4S)-4-carboxy-4-(17-carboxyheptadecanoylamino)butanoyl]amino]butanoyl]amino]ethoxy]ethoxy]acetyl]amino]butanoyl]amino]butanoyl]-[Imp7,Aib8,His9,Lys18,Ala22,Arg26,Leu33,Thr35]-GLP-1-(7-35)-peptide amide] (Desaminohistidyl-[Aib]HGTFTSDVSKYLEAQAAREFIAWLLK([γGlu-γGlu-AEEA-γGlu-γGlu-C18 diacid])T-NH2) it was 3 pM; in that of `CC[C@H](C)[C@H](NC(=O)[C@H](Cc1ccccc1)NC(=O)[C@H](CCC(=O)O)NC(=O)[C@H](CCCNC(=N)N)NC(=O)[C@H](C)NC(=O)[C@H](C)NC(=O)[C@H](CCCNC(=N)N)NC(=O)CNC(=O)[C@H](CCC(=O)O)NC(=O)[C@H](CC(C)C)NC(=O)[C@H](Cc1ccc(O)cc1)NC(=O)[C@H](CCCNC(=N)N)NC(=O)[C@H](CO)NC(=O)[C@@H](NC(=O)[C@H](CC(=O)O)NC(=O)[C@H](CO)NC(=O)[C@@H](NC(=O)[C@H](Cc1ccccc1)NC(=O)[C@@H](NC(=O)CNC(=O)[C@H](Cc1c[nH]cn1)NC(=O)C(C)(C)NC(=O)CCc1c[nH]cn1)[C@@H](C)O)[C@@H](C)O)C(C)C)C(=O)N[C@@H](C)C(=O)N[C@@H](Cc1c[nH]c2ccccc12)C(=O)N[C@@H](CC(C)C)C(=O)N[C@@H](CC(C)C)C(=O)N[C@@H](CCCCNC(=O)CC[C@H](NC(=O)CC[C@H](NC(=O)COCCOCCNC(=O)CC[C@H](NC(=O)CC[C@H](NC(=O)CCCCCCCCCCCCCCCCC(=O)O)C(=O)O)C(=O)O)C(=O)O)C(=O)O)C(=O)NCC(=O)N[C@@H](CO)C(=O)NCC(=O)O` [Example 36, N^ε34-[(4S)-4-carboxy-4-[[(4S)-4-carboxy-4-[[2-[2-[2-[[(4S)-4-carboxy-4-[[(4S)-4-carboxy-4-(17-carboxyheptadecanoylamino)butanoyl]amino]butanoyl]amino]ethoxy]ethoxy]acetyl]amino]butanoyl]amino]butanoyl]-[Imp7,Aib8,His9,Arg18,Arg23,Arg26,Leu33,Ser36]-GLP-1-(7-37)-peptide] (Desaminohistidyl-[Aib]HGTFTSDVSRYLEGRAAREFIAWLLK([γGlu-γGlu-AEEA-γGlu-γGlu-C18 diacid])GSG-OH), 6 pM.
